Laboratory results from patent publication US11377416B2, “Crystalline forms of hydroxynorketamine” (SMALL PHARMA LTD, priority 2017, dated 2022).

How the values were obtained:
[1] = TG/DTA thermal analysis of crystal forms; type: physicochemical; details: heated 10° C./min from 20° C. to 300° C. under nitrogen
Experimental: Approximately 5 mg of material was weighed into an open aluminium pan and loaded into a simultaneous thermogravimetric/differential thermal analyser (TG/DTA) and held at room temperature. The sample was then heated at a rate of 10° C./min from 20° C. to 300° C. during which time the change in sample weight was recorded along with any differential thermal events (DTA). Nitrogen was used as the purge gas, at a flow rate of 300 cm^3/min.

[2] = comparison value for known crystal forms, conditions not given; cited from earlier work
[3] = pKa analysis, potentiometric (pH-metric) titration; type: physicochemical; details: pH-metric triple titration, methanol-water co-solvent, pH 2.0-12.0, Yasuda-Shedlovsky extrapolation
Experimental: The sample pKa was determined using the potentiometric (pH-metric) technique following attempts to determine pKa via UV spectroscopic techniques.
UV-metric: The sample was initially titrated in a fast-UV triple titration between pH 2.0-12.0 at concentrations of 31-19 μM, under aqueous conditions. No evidence of any sample ionisation within the investigated pH range was inferred from the spectroscopic data obtained, meaning that any ionisable groups were remote from chromophores. Therefore, the sample was analysed using the pH-metric method.
pH-metric: The sample was subsequently titrated using the potentiometric technique to determine the non-UV active pKas. A triple titration was carried out under methanol-water co-solvent conditions from pH 2.0-12.0 at concentrations of 0.9-0.6 mM (the methanol mixing ratio varied from 53.0 to 33.3% w/w). No precipitation of the sample from solution was observed so the pKa was determined from the potentiometric data collected, by Yasuda-Shedlovsky extrapolation of the individual results obtained. pKa of 2R,6R-hydroxynorketamine was calculated as 6.51+/−0.02.

Compound: NC1(c2ccccc2Cl)CCCC(O)C1=O.O=C(O)CC(O)(CC(=O)O)C(=O)O (stereo not drawn) [2R,6R-Hydroxynorketamine Citrate]
- temperature above which the material degrades (TG/DTA) [1]: above 157 °C

Compound: NC1(c2ccccc2Cl)CCCC(O)C1=O.O=C(O)C=CC(=O)O.O=C(O)C=CC(=O)O (stereo not drawn) [2R,6R-Hydroxynorketamine Difumarate, 2R,6R-hydroxynorketamine difumarate]
- temperature above which the material degrades (TG/DTA) [1]: above 159 °C

Compound: NC1(c2ccccc2Cl)CCCC(O)C1=O.O=C(O)CC(O)C(=O)O [2R,6R-Hydroxynorketamine L-Malate, 2R,6R-hydroxynorketamine L-malate]
- temperature above which the material degrades (TG/DTA) [1]: above 150 °C

Compound: N[C@@]1(c2ccccc2Cl)CCC[C@@H](O)C1=O.O=C(O)C(O)C(O)C(=O)O [2R,6R-Hydroxynorketamine L-Tartrate, 2R,6R-hydroxynorketamine L-tartrate]
- temperature above which the material degrades (TG/DTA) [1]: above 157 °C

Compound: N[C@@]1(c2ccccc2Cl)CCC[C@@H](O)C1=O.O=C1CC[C@@H](C(=O)O)N1 [2R,6R-hydroxynorketamine L-pyroglutamate]
- temperature above which the material degrades (TG/DTA) [1]: above 159 °C

Compound: Cl.N[C@@]1(c2ccccc2Cl)CCC[C@@H](O)C1=O [2R,6R-hydroxynorketamine hydrochloride]
- aqueous solubility of known crystal forms [2]: 25 mg/mL

Compound: N[C@@]1(c2ccccc2Cl)CCC[C@@H](O)C1=O [2R,6R-hydroxynorketamine, 2R,6R-2-(2-Chlorophenyl)-2-(amino)-6-hydroxycyclohexanone]
- pKa [3]: 6.51+/−0.02
